Data taken from PubChem BioAssay (NCI).
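Values below derive from 48-hour exposures of cells grown in 96-well plates, with endpoints linearly interpolated between the two concentrations bracketing the appropriate inhibition level. Definition used: TGI = concentration required for complete inhibition of growth.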 Where a SMILES comes first, the peptide text is derived from it. The star is where a group is joined. Boc = CC(C)(C)OC(=O)*; OBn = c1ccc(CO*)cc1

Tests used:
Assay in all cases: inhibition of tumour cell growth, NCI panel, 48 h
[1] = system: 786-0 renal
[2] = system: A498 renal
[3] = system: A549 NSCLC
[4] = system: ACHN renal
[5] = system: BT-549 breast
[6] = system: CAKI-1 renal
[7] = system: CCRF-CEM leukemia
[8] = system: COLO 205 colon
[9] = system: DU-145 prostate
[10] = system: EKVX NSCLC
[11] = system: HCC-2998 colon
[12] = system: HCT-116 colon
[13] = system: HCT-15 colon
[14] = system: HL-60(TB) leukemia
[15] = system: HOP-92 NSCLC
[16] = system: HS 578T breast
[17] = system: HT29 colon
[18] = system: IGROV1 ovarian
[19] = system: K-562 leukemia
[20] = system: KM12 colon
[21] = system: LOX IMVI melanoma
[22] = system: M14 melanoma
[23] = system: MCF7 breast
[24] = system: MDA-MB-231 breast
[25] = system: MDA-MB-435
[26] = system: MDA-N
[27] = system: MOLT-4 leukemia
[28] = system: NCI-H226 lung
[29] = system: NCI-H23 lung
[30] = system: NCI-H460 lung
[31] = system: NCI-H522 lung
[32] = system: NCI/ADR-RES ovarian
[33] = system: OVCAR-3 ovarian
[34] = system: OVCAR-4 ovarian
[35] = system: OVCAR-5 ovarian
[36] = system: OVCAR-8 ovarian
[37] = system: PC-3 prostate
[38] = system: RPMI-8226 leukemia
[39] = system: RXF 393 renal
[40] = system: SF-268 CNS
[41] = system: SF-295 CNS
[42] = system: SF-539 CNS
[43] = system: SK-MEL-2 melanoma
[44] = system: SK-MEL-28 melanoma
[45] = system: SK-MEL-5 melanoma
[46] = system: SK-OV-3 ovarian
[47] = system: SN12C renal
[48] = system: SNB-19 CNS
[49] = system: SNB-75 CNS
[50] = system: SR leukemia
[51] = system: SW-620 colon
[52] = system: T-47D breast
[53] = system: TK-10 renal
[54] = system: U251 CNS
[55] = system: UACC-257 melanoma
[56] = system: UACC-62 melanoma
[57] = system: UO-31 renal
[58] = system: HOP-62 NSCLC
[59] = system: MALME-3M melanoma

CC(=O)OC1OC(c2ccoc2)C[C@@]12C1CCC3O[C@]3(C)[C@]1(C)C[C@H](OC(C)=O)[C@H]2C (some centres not stated)
TGI [1]: > 75 µM
TGI [2]: > 75 µM
TGI [3]: > 75 µM
TGI [4]: > 75 µM
TGI [5]: > 75 µM
TGI [6]: > 75 µM
TGI [7]: > 75 µM
TGI [8]: > 75 µM
TGI [9]: > 75 µM
TGI [10]: > 75 µM
TGI [11]: > 75 µM
TGI [12]: > 75 µM
TGI [13]: > 75 µM
TGI [14]: > 75 µM
TGI [15]: > 75 µM
TGI [16]: > 75 µM
TGI [17]: > 75 µM
TGI [18]: > 75 µM
TGI [19]: > 75 µM
TGI [20]: > 75 µM
TGI [21]: > 75 µM
TGI [22]: > 75 µM
TGI [23]: > 75 µM
TGI [24]: > 75 µM
TGI [25]: > 75 µM
TGI [26]: > 75 µM
TGI [27]: > 75 µM
TGI [28]: > 75 µM
TGI [29]: > 75 µM
TGI [30]: > 75 µM
TGI [31]: > 75 µM
TGI [32]: > 75 µM
TGI [33]: > 75 µM
TGI [34]: > 75 µM
TGI [35]: > 75 µM
TGI [36]: > 75 µM
TGI [37]: > 75 µM
TGI [38]: > 75 µM
TGI [39]: > 75 µM
TGI [40]: > 75 µM
TGI [41]: > 75 µM
TGI [42]: > 75 µM
TGI [43]: > 75 µM
TGI [44]: > 75 µM
TGI [45]: > 75 µM
TGI [46]: > 75 µM
TGI [47]: > 75 µM
TGI [48]: > 75 µM
TGI [49]: > 75 µM
TGI [50]: > 75 µM
TGI [51]: > 75 µM
TGI [52]: > 75 µM
TGI [53]: > 75 µM
TGI [54]: > 75 µM
TGI [55]: > 75 µM
TGI [56]: > 75 µM
TGI [57]: > 75 µM

CC(C)CC(NC(=O)C(Cc1ccccc1)NC(=O)C(Cc1ccccc1)NC(=O)OC(C)(C)C)C(=O)OCc1ccccc1 (stereo not drawn) (Boc-Phe-Phe-Leu-OBn; configuration not given here)
TGI [1]: > 100 µM
TGI [2]: > 100 µM
TGI [3]: > 100 µM
TGI [5]: > 100 µM
TGI [6]: > 100 µM
TGI [7]: > 100 µM
TGI [8]: > 100 µM
TGI [9]: > 100 µM
TGI [10]: > 100 µM
TGI [12]: > 100 µM
TGI [13]: > 100 µM
TGI [14]: > 100 µM
TGI [58]: > 100 µM
TGI [15]: > 100 µM
TGI [16]: > 100 µM
TGI [17]: > 100 µM
TGI [18]: > 100 µM
TGI [19]: > 100 µM
TGI [20]: > 100 µM
TGI [21]: > 100 µM
TGI [22]: > 100 µM
TGI [59]: > 100 µM
TGI [23]: > 100 µM
TGI [24]: > 100 µM
TGI [25]: > 100 µM
TGI [26]: > 100 µM
TGI [27]: > 100 µM
TGI [28]: > 100 µM
TGI [29]: > 100 µM
TGI [31]: > 100 µM
TGI [32]: > 100 µM
TGI [33]: > 100 µM
TGI [35]: > 100 µM
TGI [36]: > 100 µM
TGI [37]: > 100 µM
TGI [38]: > 100 µM
TGI [39]: > 100 µM
TGI [40]: > 100 µM
TGI [41]: > 100 µM
TGI [42]: > 100 µM
TGI [43]: > 100 µM
TGI [44]: > 100 µM
TGI [45]: > 100 µM
TGI [46]: > 100 µM
TGI [47]: > 100 µM
TGI [48]: > 100 µM
TGI [49]: > 100 µM
TGI [50]: > 100 µM
TGI [51]: > 100 µM
TGI [52]: > 100 µM
TGI [53]: > 100 µM
TGI [54]: > 100 µM
TGI [55]: > 100 µM
TGI [56]: > 100 µM
TGI [57]: > 100 µM
